Data from patent US6573218B1, “Fused-benzene derivatives useful as herbicides” (Ishihara Sangyo Kaisha, Ltd., priority 1998, dated 2003).

Assays:
Assay type in all cases: in vivo
[1] = tested on: barnyardgrass (Echinochloa crus-galli, ECHCG); test: Post-emerge greenhouse herbicide test; conditions: 14 days after application
Source text: (§1) A standard greenhouse herbicide activity screening system was used to evaluate the herbicidal efficacy and crop safety of these test compounds. Seven broadleaf weed species including redroot pigweed (Amaranthus retroflexus, AMARE), velvetleaf (Abutilon theophrasti, ABUTH), sicklepod (Cassia obtusifolia, CASOB), ivyleaf morningglory (Ipomoea hederacea, IPOHE), lambsquarters (Chenopodium album, CHEAL), common ragweed (Ambrosia artemisiifolia L., AMBEL), and cocklebur (Xanthium strumarium, XANST) were used as test species. Four grass weed species including green foxtail (Setaria viridis, SETVI), barnyardgrass (Echinochloa crus-galli, ECHCG), johnsongrass (Sorghum halepense, SORHA), and large crabgrass (Digitaria sanguinalis, DIGSA) were also used. In addition, three crop species, field corn (Zea mays L., var. Dekalb 527, CORN), soybean (Glycine max L., var. Pella 86, SOY), and upland rice (Ory0a sp., var.Tebonnet, RICE) were included.
(§2) All plants were grown in 10 cm square plastic pots which were filled with a sandy loam soil mix. For pre-emerge tests, seeds were planted one day prior to application of the test compounds. For post-emerge tests, seeds were planted 8-21 days prior to the test to allow emergence and good foliage development prior to application of the test substances. At the time of the post-emerge application, plants of all species were usually at the 2-3 leaf stage of development.
(§3) All test compounds were dissolved in acetone and applied to the test units in a volume of 187 l/ha. Test materials were applied at rates ranging from 15 g ai/ha to 1000 g ai/ha using a track sprayer equipped with a TJ8001E even flow flat fan spray nozzle. Plants were arranged on a shelf so that the top of the canopy (post-emerge) or top of the soil surface (pre-emerge) was 40-45 cm below the nozzle. Pressurized air was used to force the test solution through the nozzle as it was mechanically advanced over the top of all test plants/pots. This application simulates a typical commercial field herbicide application.
(§4) In the post-emerge test, a commercial non-ionic surfactant was also included (0.25% v/v) to enhance wetting of the leaf surfaces of target plants. Immediately after application, test units of the pre-emerge applications were watered at the soil surface to incorporate the test materials.
(§5) At 14 days after application of the test materials, phytotoxicity ratings were recorded. A rating scale of 0-100 was used as previously described in Research Methods in Weed Science, 2nd edition, B. Truelove, Ed., Southern Weed Science Society, Auburn University, Auburn, Ala., 1977. Briefly, “0” corresponds to no damage and “100” corresponds to complete death of all plants in the test unit. This scale was used both to determine efficacy against weed species and damage to crop species. Herbicide activity data for various compounds of this invention, which are shown by compound No. in Tables 1-14, are shown in Tables 16 and 17.

[2] = tested on: green foxtail (Setaria viridis, SETVI); test: Post-emerge greenhouse herbicide test; conditions: 14 days after application
Source text: as §1, §2, §3, §4, §5

[3] = tested on: ivyleaf morningglory (Ipomoea hederacea, IPOHE); test: Post-emerge greenhouse herbicide test; conditions: 14 days after application
Source text: as §1, §2, §3, §4, §5

[4] = tested on: lambsquarters (Chenopodium album, CHEAL); test: Post-emerge greenhouse herbicide test; conditions: 14 days after application
Source text: as §1, §2, §3, §4, §5

[5] = tested on: large crabgrass (Digitaria sanguinalis, DIGSA); test: Post-emerge greenhouse herbicide test; conditions: 14 days after application
Source text: as §1, §2, §3, §4, §5

[6] = tested on: redroot pigweed (Amaranthus retroflexus, AMARE); test: Post-emerge greenhouse herbicide test; conditions: 14 days after application
Source text: as §1, §2, §3, §4, §5

[7] = tested on: sicklepod (Cassia obtusifolia, CASOB); test: Post-emerge greenhouse herbicide test; conditions: 14 days after application
Source text: as §1, §2, §3, §4, §5

[8] = tested on: velvetleaf (Abutilon theophrasti, ABUTH); test: Post-emerge greenhouse herbicide test; conditions: 14 days after application
Source text: as §1, §2, §3, §4, §5

[9] = tested on: field corn (Zea mays L., var. Dekalb 527, CORN); test: Post-emerge greenhouse crop damage test
Source text: as §1, §2, §3, §4, §5

[10] = tested on: soybean (Glycine max L., var. Pella 86, SOY); test: Post-emerge greenhouse crop damage test; conditions: in vivo
Source text: as §1, §2, §3, §4, §5

[11] = tested on: upland rice (Ory0a sp., var.Tebonnet, RICE); test: Post-emerge greenhouse crop damage test
Source text: as §1, §2, §3, §4, §5

[12] = tested on: barnyardgrass (Echinochloa crus-galli, ECHCG); test: Pre-emerge greenhouse herbicide test; conditions: 14 days after application, scale 0-100 (0 no damage, 100 complete death)
Source text: as §1, §2, §3, §4, §5

[13] = tested on: green foxtail (Setaria viridis, SETVI); test: Pre-emerge greenhouse herbicide test; conditions: 14 days after application, scale 0-100 (0 no damage, 100 complete death)
Source text: as §1, §2, §3, §4, §5

[14] = tested on: ivyleaf morningglory (Ipomoea hederacea, IPOHE); test: Pre-emerge greenhouse herbicide test; conditions: 14 days after application, scale 0-100 (0 no damage, 100 complete death)
Source text: as §1, §2, §3, §4, §5

[15] = tested on: lambsquarters (Chenopodium album, CHEAL); test: Pre-emerge greenhouse herbicide test; conditions: 14 days after application, scale 0-100 (0 no damage, 100 complete death)
Source text: as §1, §2, §3, §4, §5

[16] = tested on: large crabgrass (Digitaria sanguinalis, DIGSA); test: Pre-emerge greenhouse herbicide test; conditions: 14 days after application, scale 0-100 (0 no damage, 100 complete death)
Source text: as §1, §2, §3, §4, §5

[17] = tested on: redroot pigweed (Amaranthus retroflexus, AMARE); test: Pre-emerge greenhouse herbicide test; conditions: 14 days after application, scale 0-100 (0 no damage, 100 complete death)
Source text: as §1, §2, §3, §4, §5

[18] = tested on: sicklepod (Cassia obtusifolia, CASOB); test: Pre-emerge greenhouse herbicide test; conditions: 14 days after application, scale 0-100 (0 no damage, 100 complete death)
Source text: as §1, §2, §3, §4, §5

[19] = tested on: velvetleaf (Abutilon theophrasti, ABUTH); test: Pre-emerge greenhouse herbicide test; conditions: 14 days after application, scale 0-100 (0 no damage, 100 complete death)
Source text: as §1, §2, §3, §4, §5

[20] = tested on: field corn (Zea mays L., var. Dekalb 527, CORN); test: Pre-emerge greenhouse crop damage test
Source text: as §1, §2, §3, §4, §5

[21] = tested on: soybean (Glycine max L., var. Pella 86, SOY); test: Pre-emerge greenhouse crop damage test
Source text: as §1, §2, §3, §4, §5

[22] = tested on: upland rice (Ory0a sp., var.Tebonnet, RICE); test: Pre-emerge greenhouse crop damage test
Source text: as §1, §2, §3, §4, §5

[23] = 250 g ai/ha, post-emerge, 14 days after application
[24] = pre-emerge, 250 g ai/ha, 14 days after application, scale 0-100 (0 no damage, 100 complete death)
[25] = var. Dekalb 527, field corn (Zea mays L.), in vivo, 14 days
[26] = var. Tebonnet, upland rice (Ory0a sp.), in vivo, 14 days

## CCc1nc2c(N3C(=O)C4CCCCN4C3=S)c(F)cc(Cl)c2o1 (single isomer, unassigned) [Compound 7-6, 8-(7-Chloro-2-ethyl-5-fluorobenzoxazol-4-yl)-1,8-diazobicyclo[4,3,0]nonane-7-one-9-thione]
[1]; 250 g ai/ha
  Post-emerge Herbicidal Activity ECHCG (phytotoxicity rating 0-100): 0
[2]; 250 g ai/ha
  Post-emerge Herbicidal Activity SETVI (phytotoxicity rating 0-100): 10
[3]; 250 g ai/ha
  Post-emerge Herbicidal Activity IPOHE (phytotoxicity rating 0-100): 70
[4]; 250 g ai/ha
  Post-emerge Herbicidal Activity CHEAL (phytotoxicity rating 0-100): 60
[5]; 250 g ai/ha
  Post-emerge Herbicidal Activity DIGSA (phytotoxicity rating 0-100): 0
[6]; 250 g ai/ha
  Post-emerge Herbicidal Activity AMARE (phytotoxicity rating 0-100): 30
[7]; 250 g ai/ha
  Post-emerge Herbicidal Activity CASOB (phytotoxicity rating 0-100): 30
[8]; 250 g ai/ha
  Post-emerge Herbicidal Activity ABUTH (phytotoxicity rating 0-100): 90
[9]; [23]
  Post-emerge crop damage CORN (phytotoxicity rating 0-100): 30
[10]
  Post-emerge crop damage SOY (phytotoxicity rating 0-100): 50
[11]; [23]
  Post-emerge crop damage RICE (phytotoxicity rating 0-100): 10

## CCc1nc2c(N3C(=O)C4CCCCN4C3=O)c(F)cc(Cl)c2o1 (centres unmarked) [Compound 7-9]
[12]; 250 g ai/ha
  Pre-emerge Herbicidal Activity ECHCG (phytotoxicity rating): 10
[13]; 250 g ai/ha
  Pre-emerge Herbicidal Activity SETVI (phytotoxicity rating): 40
[14]; 250 g ai/ha
  Pre-emerge Herbicidal Activity IPOHE (phytotoxicity rating): 20
[15]; 250 g ai/ha
  Pre-emerge Herbicidal Activity CHEAL (phytotoxicity rating): 100
[16]; 250 g ai/ha
  Pre-emerge Herbicidal Activity DIGSA (phytotoxicity rating): 30
[17]; 250 g ai/ha
  Pre-emerge Herbicidal Activity AMARE (phytotoxicity rating): 100
[18]; 250 g ai/ha
  Pre-emerge Herbicidal Activity CASOB (phytotoxicity rating): 10
[19]; 250 g ai/ha
  Pre-emerge Herbicidal Activity ABUTH (phytotoxicity rating): 50
[20]; [24]
  Pre-emerge Herbicidal Activity CORN (crop damage rating): 0
[21]; [24]
  Pre-emerge Herbicidal Activity SOY (crop damage rating): 15
[22]; [24]
  Pre-emerge Herbicidal Activity RICE (crop damage rating): 10

## Cn1c(C(F)(F)F)cc(=O)n(-c2ccc(Cl)c3ccccc23)c1=O [Compound 5-1, 3-(4-Chloronaphthalen-1-yl)-1-methyl-6-trifluoromethyl-2,4(1H,3H)-pyrimidindione]
[12]; 500 g ai/ha
  Pre-emerge Herbicidal Activity ECHCG (phytotoxicity rating): 60
[13]; 500 g ai/ha
  Pre-emerge Herbicidal Activity SETVI (phytotoxicity rating): 100
[14]; 500 g ai/ha
  Pre-emerge Herbicidal Activity IPOHE (phytotoxicity rating): 60
[15]; 500 g ai/ha
  Pre-emerge Herbicidal Activity CHEAL (phytotoxicity rating): 100
[16]; 500 g ai/ha
  Pre-emerge Herbicidal Activity DIGSA (phytotoxicity rating): 98
[17]; 500 g ai/ha
  Pre-emerge Herbicidal Activity AMARE (phytotoxicity rating): 100
[18]; 500 g ai/ha
  Pre-emerge Herbicidal Activity CASOB (phytotoxicity rating): 60
[19]; 500 g ai/ha
  Pre-emerge Herbicidal Activity ABUTH (phytotoxicity rating): 100
[20]; [25]
  Pre-emerge Herbicidal Activity CORN (crop damage rating): 70
[21]; var. Pella 86, soybean (Glycine max L.), in vivo, 14 days
  Pre-emerge Herbicidal Activity SOY (crop damage rating): 70
[22]; [26]
  Pre-emerge Herbicidal Activity RICE (crop damage rating): 70
[1]; 500 g ai/ha
  Post-emerge Herbicidal Activity ECHCG (phytotoxicity rating 0-100): 70
[2]; 500 g ai/ha
  Post-emerge Herbicidal Activity SETVI (phytotoxicity rating 0-100): 100
[3]; 500 g ai/ha
  Post-emerge Herbicidal Activity IPOHE (phytotoxicity rating 0-100): 60
[4]; 500 g ai/ha
  Post-emerge Herbicidal Activity CHEAL (phytotoxicity rating 0-100): 100
[5]; 500 g ai/ha
  Post-emerge Herbicidal Activity DIGSA (phytotoxicity rating 0-100): 60
[6]; 500 g ai/ha
  Post-emerge Herbicidal Activity AMARE (phytotoxicity rating 0-100): 100
[7]; 500 g ai/ha
  Post-emerge Herbicidal Activity CASOB (phytotoxicity rating 0-100): 60
[8]; 500 g ai/ha
  Post-emerge Herbicidal Activity ABUTH (phytotoxicity rating 0-100): 100
[9]; [25]
  Post-emerge crop damage CORN (phytotoxicity rating 0-100): 0
[10]; var. Pella 86, soybean (Glycine max L.), 14 days
  Post-emerge crop damage SOY (phytotoxicity rating 0-100): 0
[11]; [26]
  Post-emerge crop damage RICE (phytotoxicity rating 0-100): 0
